Experimental data published in ChEMBL document CHEMBL5143546, “Synthesis and biological evaluation of quinolone derivatives as transthyretin amyloidogenesis inhibitors and fluorescence sensors” (Bioorg Med Chem, 2022).

Key:
[1] = target: T1, Transthyretin (Homo sapiens, UniProt P02766); experiment: Inhibition of wild-type Transthyretin (unknown origin) expressed in Escherichia coli expression system assessed as acid mediated fibril formation at 7.2 uM measured after 72 hrs by UV-vis spectrophotometry; design: scale not given: the % may be the effect or the level left
[2] = target: T1, Transthyretin; experiment: Inhibition of wild-type Transthyretin (unknown origin) expressed in Escherichia coli expression system assessed as acid mediated fibril formation at 3.6 uM measured after 72 hrs by UV-vis spectrophotometry; design: scale not given: the % may be the effect or the level left
[3] = Metabolic stability in human liver microsome assessed as half life at 1 uM by LC-MS/MS analysis; assay type: ADME; settings: liver microsomes
[4] = target: T1, Transthyretin; experiment: Inhibition of urea-induced Transthyretin denaturation in human plasma preincubated for 1 hr followed by urea addition by Western blot analysis; assay type: cell-free
[5] = Metabolic stability in rat liver microsome assessed as half life at 1 uM by LC-MS/MS analysis; assay type: ADME; settings: liver microsomes
[6] = system: Transthyretin (Homo sapiens), P02766 [V50M]; experiment: Inhibition of Transthyretin V30M mutant (unknown origin) assessed as acid mediated fibril formation at 3.6 uM measured after 72 hrs by UV-vis spectrophotometry; design: scale not given: the % may be the effect or the level left
[7] = Metabolic stability in rat plasma assessed as percentage of compound remaining at 1 uM measured after 1 hr by LC-MS/MS analysis; assay type: ADME, cell-free; settings: read-out: Stability
[8] = system: Transthyretin (Homo sapiens), P02766 [V50M]; experiment: Inhibition of Transthyretin V30M mutant (unknown origin) assessed as acid mediated fibril formation at 1.8 uM measured after 72 hrs by UV-vis spectrophotometry; design: scale not given: the % may be the effect or the level left
[9] = Metabolic stability in rat plasma assessed as half life at 1 uM by LC-MS/MS analysis; assay type: ADME, cell-free
[10] = Metabolic stability in rat liver microsome assessed as percentage of compound remaining at 1 uM measured after 30 min by LC-MS/MS analysis; assay type: ADME; settings: liver microsomes, read-out: Stability
[11] = Metabolic stability in human liver microsome assessed as percentage of compound remaining at 1 uM measured after 30 min by LC-MS/MS analysis; assay type: ADME; settings: liver microsomes, read-out: Stability

Cc1n[nH]c(C)c1CCc1c(C)c2ccc(N)cc2n(C)c1=O
Activity [1]: 11.6%
Activity [2]: 34.8%

Cc1cc(/C=C/c2c(C)c3ccc(N)cc3n(C)c2=O)cc(C)c1O
half-life at 1 µM [3]: 1.59 h
IC50 [4]: 3.1 µM
half-life at 1 µM [5]: 0.603 h
Activity [6]: 16.7%
remaining at 1 h, 1 µM [7]: ≥ 100%
Activity [8]: 49.6%
half-life at 1 µM [9]: ≥ 10 h
remaining at 0.5 h, 1 µM [10]: 57.2%
remaining at 0.5 h, 1 µM [11]: 76.9%
Activity [1]: 3.4%
Activity [2]: 12.8%

COc1cc2c(C)c(/C=C/c3cc(C)c(O)c(C)c3)c(=O)n(C)c2cc1N
half-life at 1 µM [3]: 1.01 h
IC50 [4]: 11.4 µM
half-life at 1 µM [5]: 0.758 h
Activity [6]: 22.9%
remaining at 1 h, 1 µM [7]: 86.8%
Activity [8]: 55.3%
half-life at 1 µM [9]: 2.33 h
remaining at 0.5 h, 1 µM [10]: 59.9%
remaining at 0.5 h, 1 µM [11]: 71.5%
Activity [1]: 6%
Activity [2]: 15.7%

Cc1cc(CCc2c(C)c3ccc(N)cc3n(C)c2=O)cc(C)c1O
IC50 [4]: 14.4 µM
Activity [6]: 22.1%
Activity [8]: 54.8%
Activity [1]: 2.3%
Activity [2]: 16.4%

COc1cc2c(C)c(CCc3cc(C)c(O)c(C)c3)c(=O)n(C)c2cc1N
Activity [1]: 2.5%
Activity [2]: 31.8%

Cc1n[nH]c(C)c1/C=C/c1c(C)c2ccc(N)cc2n(C)c1=O
Activity [1]: 1.8%
Activity [2]: 28.1%

O=C(O)c1ccc2nc(-c3cc(Cl)cc(Cl)c3)oc2c1
Activity [6]: 15.9%
Activity [1]: 3.6%

Cc1cc(/C=C/c2c(C)c3ccc(O)cc3n(C)c2=O)cc(C)c1O
Activity [1]: 5.9%
Activity [2]: 24.5%

COc1cc2c(C)c(/C=C/c3c(C)n[nH]c3C)c(=O)n(C)c2cc1N
Activity [1]: 14.3%

Cc1cc(CCc2c(C)c3ccc(O)cc3n(C)c2=O)cc(C)c1O
IC50 [4]: 13.7 µM
Activity [6]: 26.5%
Activity [8]: 56.6%
Activity [1]: 3.1%
Activity [2]: 20.8%
